Data reported in ChEMBL document CHEMBL1150758, “Heyneanine hydroxyindolenine, a new indole alkaloid from Ervatamia coronaria var. plena” (J Nat Prod, 1988).
Activity calls are given as the source filed them. The rule behind the calls is not given here.

What was measured:
[1] = tested on: KB; test: Cytotoxicity against human KB cells; assay type: functional, cell-based
[2] = tested on: P388; test: Cytotoxicity against mouse P388 cells; assay type: functional, cell-based

| Structure (SMILES) | Activity [1] | Activity [2] |
| --- | --- | --- |
| COC(=O)[C@@]12C[C@@H]3C[C@H]([C@H](C)O)[C@@H]1N(CC[C@]1(O)C2=Nc2ccc(OC)cc21)C3 | inactive | inactive |
| COC(=O)[C@@]12C[C@@H]3C[C@H]([C@H](C)O)[C@@H]1N(CC[C@]1(O)C2=Nc2ccccc21)C3 | inactive | inactive |
| CC[C@H]1C[C@H]2C[C@@]3(C(=O)OC)c4[nH]c5ccccc5c4CCN(C2=O)[C@@H]13 | inactive | inactive |
| CC[C@H]1C[C@@H]2CN3CC[C@]4(O)C(=Nc5ccccc54)[C@](C(=O)OC)(C2)[C@H]13 | inactive | inactive |
| CC[C@H]1C[C@@H]2CN3CC[C@]4(O)C(=Nc5ccc(OC)cc54)[C@](C(=O)OC)(C2)[C@H]13 | inactive | inactive |
